In PubChem BioAssay (NCI):
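Interpolation was linear, between the two tested concentrations surrounding the appropriate level; five concentrations were tested over 48 hours in 96-well plates. The concentration for 50% growth inhibition is given as GI50. TGI: total growth inhibition.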

Assays:
Assay in all cases: NCI anticancer screen, dose series, 48 h
MALME-3M melanoma = system: MALME-3M melanoma
PC-3 prostate = system: PC-3 prostate
KM12 colon = system: KM12 colon
IGROV1 ovarian = system: IGROV1 ovarian
UO-31 renal = system: UO-31 renal
MCF7 breast = system: MCF7 breast
HL-60(TB) leukemia = system: HL-60(TB) leukemia
HCC-2998 colon = system: HCC-2998 colon
SW-620 colon = system: SW-620 colon
SK-OV-3 ovarian = system: SK-OV-3 ovarian
SNB-19 CNS = system: SNB-19 CNS
U251 CNS = system: U251 CNS
SNB-75 CNS = system: SNB-75 CNS
HS 578T breast = system: HS 578T breast
NCI/ADR-RES ovarian = system: NCI/ADR-RES ovarian
OVCAR-4 ovarian = system: OVCAR-4 ovarian
SN12C renal = system: SN12C renal
NCI-H226 lung = system: NCI-H226 lung
K-562 leukemia = system: K-562 leukemia
OVCAR-8 ovarian = system: OVCAR-8 ovarian
RPMI-8226 leukemia = system: RPMI-8226 leukemia
NCI-H522 lung = system: NCI-H522 lung
SK-MEL-5 melanoma = system: SK-MEL-5 melanoma
RXF 393 renal = system: RXF 393 renal
SK-MEL-28 melanoma = system: SK-MEL-28 melanoma
OVCAR-5 ovarian = system: OVCAR-5 ovarian
SF-295 CNS = system: SF-295 CNS
UACC-62 melanoma = system: UACC-62 melanoma
786-0 renal = system: 786-0 renal
SK-MEL-2 melanoma = system: SK-MEL-2 melanoma
COLO 205 colon = system: COLO 205 colon
TK-10 renal = system: TK-10 renal
A549 NSCLC = system: A549 NSCLC
CCRF-CEM leukemia = system: CCRF-CEM leukemia
NCI-H23 lung = system: NCI-H23 lung
CAKI-1 renal = system: CAKI-1 renal
MOLT-4 leukemia = system: MOLT-4 leukemia
UACC-257 melanoma = system: UACC-257 melanoma
ACHN renal = system: ACHN renal
SF-268 CNS = system: SF-268 CNS
HCT-116 colon = system: HCT-116 colon
DU-145 prostate = system: DU-145 prostate
MDA-MB-231 breast = system: MDA-MB-231 breast
BT-549 breast = system: BT-549 breast
HOP-92 NSCLC = system: HOP-92 NSCLC
SF-539 CNS = system: SF-539 CNS
HCT-15 colon = system: HCT-15 colon
A498 renal = system: A498 renal
EKVX NSCLC = system: EKVX NSCLC
HOP-62 NSCLC = system: HOP-62 NSCLC
MDA-MB-435 = system: MDA-MB-435
SR leukemia = system: SR leukemia
M14 melanoma = system: M14 melanoma
T-47D breast = system: T-47D breast
HT29 colon = system: HT29 colon
NCI-H460 lung = system: NCI-H460 lung

Compound `O=C(Nc1cccc(C(F)(F)F)c1)c1cc(-c2ccc(F)cc2F)ccc1O` has a GI50 (MALME-3M melanoma) of 1.77 µM, a TGI (MALME-3M melanoma) of 4.65 µM and a GI50 (PC-3 prostate) of 2.89 µM. For the same compound, the TGI (PC-3 prostate) was 15.1 µM, the GI50 (KM12 colon) was 2.44 µM and the TGI (KM12 colon) was 6.12 µM. The GI50 (IGROV1 ovarian) was 2.82 µM, the TGI (IGROV1 ovarian) was 17 µM and the GI50 (UO-31 renal) was 2.46 µM. The TGI (UO-31 renal) was 10.6 µM, the GI50 (MCF7 breast) was 2.18 µM and the TGI (MCF7 breast) was 9.29 µM. The GI50 (HL-60(TB) leukemia) was 2.06 µM, the TGI (HL-60(TB) leukemia) was 4.97 µM and the GI50 (HCC-2998 colon) was 3.07 µM. The TGI (HCC-2998 colon) was 13.2 µM, the GI50 (SW-620 colon) was 3.61 µM and the TGI (SW-620 colon) was 14.5 µM. It also gave a GI50 (SK-OV-3 ovarian) of 2.43 µM, a TGI (SK-OV-3 ovarian) of 8.62 µM and a GI50 (SNB-19 CNS) of 3.08 µM. The TGI (SNB-19 CNS) was 73.5 µM, the GI50 (U251 CNS) was 2.99 µM and the TGI (U251 CNS) was 17.5 µM. For the same compound, the GI50 (SNB-75 CNS) was 1.52 µM, the TGI (SNB-75 CNS) was 4.25 µM and the GI50 (HS 578T breast) was 2.47 µM. For the same compound, the TGI (HS 578T breast) was 9.63 µM, the GI50 (NCI/ADR-RES ovarian) was 2.57 µM and the TGI (NCI/ADR-RES ovarian) was 8.63 µM. The GI50 (OVCAR-4 ovarian) was 3.11 µM, the TGI (OVCAR-4 ovarian) was 95.7 µM and the GI50 (SN12C renal) was 1.99 µM. The TGI (SN12C renal) was 7.61 µM, the GI50 (NCI-H226 lung) was 2.01 µM and the TGI (NCI-H226 lung) was 5.34 µM. The GI50 (K-562 leukemia) was 2.23 µM, the TGI (K-562 leukemia) was over 100 µM and the GI50 (OVCAR-8 ovarian) was 2.92 µM. It also gave a TGI (OVCAR-8 ovarian) of over 100 µM, a GI50 (RPMI-8226 leukemia) of 1.44 µM and a TGI (RPMI-8226 leukemia) of 5.28 µM. It also gave a GI50 (NCI-H522 lung) of 1.32 µM, a TGI (NCI-H522 lung) of 9.58 µM and a GI50 (SK-MEL-5 melanoma) of 1.25 µM. It also gave a TGI (SK-MEL-5 melanoma) of 2.86 µM, a GI50 (RXF 393 renal) of 2.06 µM and a TGI (RXF 393 renal) of 6.22 µM. For the same compound, the GI50 (SK-MEL-28 melanoma) was 2.17 µM, the TGI (SK-MEL-28 melanoma) was 7.58 µM and the GI50 (OVCAR-5 ovarian) was 3.41 µM. It also gave a TGI (OVCAR-5 ovarian) of 26.4 µM, a GI50 (SF-295 CNS) of 1.75 µM and a TGI (SF-295 CNS) of 3.57 µM. The GI50 (UACC-62 melanoma) was 1.16 µM, the TGI (UACC-62 melanoma) was 4.22 µM and the GI50 (786-0 renal) was 3.27 µM. It also gave a TGI (786-0 renal) of 12 µM, a GI50 (SK-MEL-2 melanoma) of 1.46 µM and a TGI (SK-MEL-2 melanoma) of 4.95 µM. It also gave a GI50 (COLO 205 colon) of 3.22 µM, a TGI (COLO 205 colon) of 10.2 µM and a GI50 (TK-10 renal) of 4.55 µM. For the same compound, the TGI (TK-10 renal) was 30.5 µM, the GI50 (A549 NSCLC) was 3.26 µM and the TGI (A549 NSCLC) was over 100 µM. For the same compound, the GI50 (CCRF-CEM leukemia) was 2.97 µM, the TGI (CCRF-CEM leukemia) was 48.6 µM and the GI50 (NCI-H23 lung) was 1.89 µM. The TGI (NCI-H23 lung) was 5.58 µM, the GI50 (CAKI-1 renal) was 1.79 µM and the TGI (CAKI-1 renal) was 5.69 µM. For the same compound, the GI50 (MOLT-4 leukemia) was 2.13 µM, the TGI (MOLT-4 leukemia) was 5.58 µM and the GI50 (UACC-257 melanoma) was 1.5 µM. For the same compound, the TGI (UACC-257 melanoma) was 6.97 µM, the GI50 (ACHN renal) was 2.76 µM and the TGI (ACHN renal) was 8.67 µM. For the same compound, the GI50 (SF-268 CNS) was 2.67 µM, the TGI (SF-268 CNS) was 16.7 µM and the GI50 (HCT-116 colon) was 1.89 µM. It also gave a TGI (HCT-116 colon) of 4.98 µM, a GI50 (DU-145 prostate) of 3.55 µM and a TGI (DU-145 prostate) of over 100 µM. For the same compound, the GI50 (MDA-MB-231 breast) was 2.01 µM, the TGI (MDA-MB-231 breast) was 5.17 µM and the GI50 (BT-549 breast) was 2.13 µM. The TGI (BT-549 breast) was 7.24 µM, the GI50 (HOP-92 NSCLC) was 0.824 µM and the TGI (HOP-92 NSCLC) was 4.28 µM. For the same compound, the GI50 (SF-539 CNS) was 3.05 µM, the TGI (SF-539 CNS) was 11 µM and the GI50 (HCT-15 colon) was 2.21 µM. The TGI (HCT-15 colon) was 6.99 µM, the GI50 (A498 renal) was 0.923 µM and the TGI (A498 renal) was 3.21 µM. The GI50 (EKVX NSCLC) was 2.28 µM, the TGI (EKVX NSCLC) was 8.98 µM and the GI50 (HOP-62 NSCLC) was 2.93 µM. It also gave a TGI (HOP-62 NSCLC) of 9.31 µM, a GI50 (MDA-MB-435) of 2.5 µM and a TGI (MDA-MB-435) of 7.11 µM. The GI50 (SR leukemia) was 2.76 µM, the TGI (SR leukemia) was 14 µM and the GI50 (M14 melanoma) was 3.02 µM. The TGI (M14 melanoma) was 10.5 µM, the GI50 (T-47D breast) was 2.2 µM and the TGI (T-47D breast) was 8.64 µM. It also gave a GI50 (HT29 colon) of 3.27 µM, a TGI (HT29 colon) of 16.9 µM and a GI50 (NCI-H460 lung) of 2.67 µM. The TGI (NCI-H460 lung) was 13.3 µM.
